Data as given in ChEMBL document CHEMBL6182867, “Discovery of ultra short β-peptoids with selective activity against drug-resistant Mycobacterium tuberculosis” (Eur J Med Chem, 2025).
Converted amounts (≈) assume the structure as drawn.

Experiments:
Format in all cases: functional
[1] = tested on: Mycobacterium tuberculosis; test: Antitubercular activity against Mycobacterium tuberculosis H37Rv ATCC 27294 by microplate alamar blue assay
[2] = tested on: Mycobacterium tuberculosis; test: Antitubercular activity against Mycobacterium tuberculosis KMA 4244 by microplate alamar blue assay
[3] = tested on: Mycobacterium tuberculosis; test: Antitubercular activity against Mycobacterium tuberculosis KMA 5282 by microplate alamar blue assay
[4] = tested on: Mycobacterium tuberculosis; test: Antitubercular activity against Mycobacterium tuberculosis KMA 1354 by microplate alamar blue assay
[5] = tested on: Mycobacterium tuberculosis; test: Antitubercular activity against Mycobacterium tuberculosis KMA 3899 by microplate alamar blue assay
[6] = tested on: Mycobacterium tuberculosis; test: Antitubercular activity against Mycobacterium tuberculosis H37Rv by microplate alamar blue assay
[7] = tested on: Mycobacterium tuberculosis; test: Antitubercular activity against Mycobacterium tuberculosis KMA 4439 by microplate alamar blue assay

| SMILES | MIC90 [1] | other results |
| --- | --- | --- |
| COCCN(CCOC)C(=O)CCNCCC(c1ccccc1)c1ccccc1 | 8.9 µg/mL (≈ 22.3 µM) |  |
| CC(C)N(C(=O)CNCc1cccc2ccccc12)C(C)C | 43.3 µg/mL (≈ 145 µM) | MIC90 [2]: 95.5 µg/mL (≈ 320 µM); MIC90 [3]: 93.6 µg/mL (≈ 314 µM); MIC90 [4]: 85 µg/mL (≈ 285 µM); MIC90 [5]: 49.9 µg/mL (≈ 167 µM); MIC90 [6]: 88.8 µg/mL (≈ 298 µM); MIC90 [7]: 95.2 µg/mL (≈ 319 µM) |
| O=C(CCNCc1cccc2ccccc12)NCCC(c1ccccc1)c1ccccc1 | 43.8 µg/mL (≈ 104 µM) |  |
| CCN(CC)C(=O)CCNCCC1CCCCCCC1 | 12.2 µg/mL (≈ 43.2 µM) |  |
| COCCN(CCOC)C(=O)CCNC(=O)CCNCc1cccc2ccccc12 | 3.87 µg/mL (≈ 9.31 µM) |  |
| CC(C)N(C(=O)CCN(CC(c1ccccc1)c1ccccc1)C(=O)CCNCC1CCCO1)C(C)C (stereo not drawn) | 24.2 µg/mL (≈ 47.7 µM) |  |
| CCN(CC)C(=O)CN(Cc1cccc2ccccc12)C(=O)CNCCC(c1ccccc1)c1ccccc1 | 4.84 µg/mL (≈ 9.28 µM) |  |
| O=C(CNCc1cccc2ccccc12)NCCC(c1ccccc1)c1ccccc1 | 7.25 µg/mL (≈ 17.7 µM) |  |
| O=C(CCNCCC(c1ccccc1)c1ccccc1)N1CCCC1 | 23.5 µg/mL (≈ 69.9 µM) |  |
| O=C(CNCCC(c1ccccc1)c1ccccc1)N1CCCC1 | 11.6 µg/mL (≈ 36.1 µM) |  |
| COCCN(CCOC)C(=O)CCN(CC1CCCO1)C(=O)CCNCC(c1ccccc1)c1ccccc1 (stereo not drawn) | 6.22 µg/mL (≈ 11.5 µM) |  |
| CC(C)N(C(=O)CCNCc1cccs1)C(C)C | 43.8 µg/mL (≈ 163 µM) |  |
| CC(C)N(C(=O)CNCCC(c1ccccc1)c1ccccc1)C(C)C | 9.55 µg/mL (≈ 27.1 µM) |  |
| O=C(CCNCC1CCCO1)N1CCCC1 (stereo not drawn) | > 100 µg/mL |  |
| CC(C)N(C(=O)CN(Cc1cccc2ccccc12)C(=O)CNCc1cccs1)C(C)C | 11.6 µg/mL (≈ 25.8 µM) |  |
| CC(C)N(C(=O)CNCC(c1ccccc1)c1ccccc1)C(C)C | 20.4 µg/mL (≈ 60.2 µM) |  |
| CC(C)N(C(=O)CN(CC(c1ccccc1)c1ccccc1)C(=O)CNCC1CCCO1)C(C)C (stereo not drawn) | 24.4 µg/mL (≈ 50.8 µM) |  |
